Assay results published in ChEMBL document CHEMBL3991601, “The target landscape of clinical kinase drugs” (Science, 2017).
Structures can show the parent of a compound that is named as a salt. Calls of active or inactive are those of the source.

How the values were obtained:
[1] = molecular target: T1, ATP-dependent RNA helicase DDX42 (Homo sapiens, UniProt Q86XP3)
T1 sequence (Q86XP3 whole entry): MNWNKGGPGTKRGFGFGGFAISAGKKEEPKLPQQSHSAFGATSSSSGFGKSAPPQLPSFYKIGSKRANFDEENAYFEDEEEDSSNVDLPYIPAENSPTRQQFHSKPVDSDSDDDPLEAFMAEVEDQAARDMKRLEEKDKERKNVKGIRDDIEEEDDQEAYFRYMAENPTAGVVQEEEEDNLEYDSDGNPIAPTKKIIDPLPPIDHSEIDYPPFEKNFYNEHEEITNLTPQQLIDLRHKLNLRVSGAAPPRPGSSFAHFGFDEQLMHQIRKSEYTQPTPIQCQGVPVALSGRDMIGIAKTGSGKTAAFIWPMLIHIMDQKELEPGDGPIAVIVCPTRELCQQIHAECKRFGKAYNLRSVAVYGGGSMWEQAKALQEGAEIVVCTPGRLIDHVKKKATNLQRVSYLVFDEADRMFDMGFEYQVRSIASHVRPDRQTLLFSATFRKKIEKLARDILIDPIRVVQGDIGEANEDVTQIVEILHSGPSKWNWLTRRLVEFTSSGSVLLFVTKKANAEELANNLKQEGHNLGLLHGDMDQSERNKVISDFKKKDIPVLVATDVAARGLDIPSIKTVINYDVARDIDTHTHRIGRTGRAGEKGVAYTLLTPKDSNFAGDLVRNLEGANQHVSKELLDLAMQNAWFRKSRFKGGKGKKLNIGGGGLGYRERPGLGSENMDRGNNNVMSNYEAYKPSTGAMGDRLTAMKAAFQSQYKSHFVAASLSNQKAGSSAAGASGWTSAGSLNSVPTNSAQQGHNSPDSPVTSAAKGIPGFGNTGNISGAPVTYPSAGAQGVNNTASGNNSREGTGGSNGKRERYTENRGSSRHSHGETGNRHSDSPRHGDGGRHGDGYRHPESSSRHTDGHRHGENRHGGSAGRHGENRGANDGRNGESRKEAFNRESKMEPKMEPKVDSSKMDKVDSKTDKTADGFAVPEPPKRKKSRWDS

[2] = molecular target: Serine/threonine-protein kinase N2 (Homo sapiens, UniProt Q16513)
Serine/threonine-protein kinase N2, sequence (Q16513 whole entry): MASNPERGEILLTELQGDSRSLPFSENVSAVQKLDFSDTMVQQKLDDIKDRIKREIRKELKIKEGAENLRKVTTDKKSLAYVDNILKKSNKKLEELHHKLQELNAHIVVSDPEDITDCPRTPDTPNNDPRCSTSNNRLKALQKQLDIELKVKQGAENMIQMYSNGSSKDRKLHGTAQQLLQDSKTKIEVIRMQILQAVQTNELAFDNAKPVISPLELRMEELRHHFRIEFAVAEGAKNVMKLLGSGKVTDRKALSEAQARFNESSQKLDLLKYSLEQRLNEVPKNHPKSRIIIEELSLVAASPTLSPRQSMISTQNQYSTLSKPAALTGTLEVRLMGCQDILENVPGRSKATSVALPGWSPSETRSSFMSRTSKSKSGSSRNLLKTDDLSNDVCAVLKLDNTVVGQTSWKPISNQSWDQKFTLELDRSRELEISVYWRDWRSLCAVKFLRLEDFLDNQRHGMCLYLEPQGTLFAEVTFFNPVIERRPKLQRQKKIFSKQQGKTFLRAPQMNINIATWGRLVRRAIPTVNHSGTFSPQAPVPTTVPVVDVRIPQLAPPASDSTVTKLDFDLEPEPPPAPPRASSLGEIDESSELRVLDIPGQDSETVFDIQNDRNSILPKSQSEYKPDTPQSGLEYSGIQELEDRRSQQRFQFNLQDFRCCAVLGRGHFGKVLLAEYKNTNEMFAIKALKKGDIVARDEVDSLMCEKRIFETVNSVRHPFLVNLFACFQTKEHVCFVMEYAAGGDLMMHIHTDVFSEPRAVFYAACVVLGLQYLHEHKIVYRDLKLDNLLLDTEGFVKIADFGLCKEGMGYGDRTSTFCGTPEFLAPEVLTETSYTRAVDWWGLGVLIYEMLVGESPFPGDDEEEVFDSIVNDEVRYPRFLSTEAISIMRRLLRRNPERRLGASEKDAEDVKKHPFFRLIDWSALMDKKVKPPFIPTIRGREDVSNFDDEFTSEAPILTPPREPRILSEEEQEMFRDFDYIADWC

Rab-like protein 3 = molecular target: T2, Rab-like protein 3 (Homo sapiens, UniProt Q5HYI8)
T2 sequence (Q5HYI8 whole entry): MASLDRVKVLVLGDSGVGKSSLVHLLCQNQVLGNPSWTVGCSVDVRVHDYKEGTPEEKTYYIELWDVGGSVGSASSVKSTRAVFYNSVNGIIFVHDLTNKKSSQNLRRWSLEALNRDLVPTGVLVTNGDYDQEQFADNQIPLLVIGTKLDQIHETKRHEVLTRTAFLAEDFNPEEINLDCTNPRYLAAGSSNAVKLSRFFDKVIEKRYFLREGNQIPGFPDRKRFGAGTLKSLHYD

[3] = molecular target: T3, Exosome RNA helicase MTR4 (Homo sapiens, UniProt P42285)
T3 sequence (P42285 whole entry): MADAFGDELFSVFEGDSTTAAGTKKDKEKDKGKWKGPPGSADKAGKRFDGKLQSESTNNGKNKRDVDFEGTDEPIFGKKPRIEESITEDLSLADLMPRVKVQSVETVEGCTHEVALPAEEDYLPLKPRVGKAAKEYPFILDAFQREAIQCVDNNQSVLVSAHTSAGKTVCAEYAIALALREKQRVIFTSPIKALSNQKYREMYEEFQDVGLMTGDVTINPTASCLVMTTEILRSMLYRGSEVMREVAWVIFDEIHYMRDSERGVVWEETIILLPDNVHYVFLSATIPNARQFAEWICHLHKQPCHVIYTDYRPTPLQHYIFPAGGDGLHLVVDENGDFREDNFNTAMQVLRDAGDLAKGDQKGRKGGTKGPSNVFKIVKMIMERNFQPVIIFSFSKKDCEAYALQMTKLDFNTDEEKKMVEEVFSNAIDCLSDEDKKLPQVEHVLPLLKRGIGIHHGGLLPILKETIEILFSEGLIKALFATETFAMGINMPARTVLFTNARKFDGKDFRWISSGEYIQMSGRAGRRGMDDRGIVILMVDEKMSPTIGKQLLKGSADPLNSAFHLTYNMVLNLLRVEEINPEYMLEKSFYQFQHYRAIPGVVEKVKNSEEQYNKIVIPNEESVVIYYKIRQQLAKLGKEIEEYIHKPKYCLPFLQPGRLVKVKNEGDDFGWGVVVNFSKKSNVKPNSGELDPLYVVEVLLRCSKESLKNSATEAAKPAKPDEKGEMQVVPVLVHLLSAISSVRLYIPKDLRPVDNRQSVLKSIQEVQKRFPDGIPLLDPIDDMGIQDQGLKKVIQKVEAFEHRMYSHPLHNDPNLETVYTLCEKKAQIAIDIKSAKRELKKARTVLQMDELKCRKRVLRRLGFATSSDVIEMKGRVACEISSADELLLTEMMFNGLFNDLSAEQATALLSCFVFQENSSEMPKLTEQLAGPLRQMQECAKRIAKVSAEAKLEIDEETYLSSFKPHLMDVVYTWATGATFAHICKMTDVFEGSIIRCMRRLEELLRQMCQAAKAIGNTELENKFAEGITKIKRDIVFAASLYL

[4] = molecular target: T4, Tyrosine--tRNA ligase, cytoplasmic (Homo sapiens, UniProt P54577)
T4 sequence (P54577 whole entry): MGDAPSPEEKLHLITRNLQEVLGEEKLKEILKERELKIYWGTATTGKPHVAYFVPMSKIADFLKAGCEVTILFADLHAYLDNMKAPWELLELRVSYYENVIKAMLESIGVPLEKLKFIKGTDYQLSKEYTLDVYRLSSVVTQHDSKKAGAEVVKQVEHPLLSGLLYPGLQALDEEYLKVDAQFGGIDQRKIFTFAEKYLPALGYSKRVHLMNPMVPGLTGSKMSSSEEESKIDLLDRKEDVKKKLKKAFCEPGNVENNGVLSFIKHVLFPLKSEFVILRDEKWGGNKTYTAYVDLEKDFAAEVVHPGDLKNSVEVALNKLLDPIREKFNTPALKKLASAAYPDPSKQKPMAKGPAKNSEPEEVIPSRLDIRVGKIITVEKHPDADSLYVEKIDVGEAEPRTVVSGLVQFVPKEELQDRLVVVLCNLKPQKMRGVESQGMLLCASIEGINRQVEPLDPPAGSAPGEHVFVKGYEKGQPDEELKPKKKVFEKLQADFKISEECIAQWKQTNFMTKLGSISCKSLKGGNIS
Further: in the data inactive means no Kd found up to 30 µM.

Compound | Kd [1] | Kd [2] | Kd (Rab-like protein 3) | Kd [3] | Kd [4]
C[C@@H](Oc1cc(C(=O)Nc2ccc(C(=O)N3CCN(C)CC3)cc2)nnc1N)c1c(Cl)ccc(F)c1Cl | > 30 µM (inactive) | > 30 µM (inactive) | > 30 µM (inactive) | > 30 µM (inactive) | > 30 µM (inactive)
C[C@H]1CNCCCN1S(=O)(=O)c1cccc2cncc(F)c12 | > 30 µM (inactive) | 0.285 µM (active) | > 30 µM (inactive) | > 30 µM (inactive) | 
CC(=O)c1cnc2ccc(-c3cc(Cl)c(O)c(Cl)c3)nc2c1N[C@H]1CC[C@H](CN(C)C)CC1 | > 30 µM (inactive) | > 30 µM (inactive) |  | > 30 µM (inactive) | > 30 µM (inactive)
CCNC(=O)C#Cc1ccc2c(c1)NC(=O)/C2=C(\Nc1ccc(CN(C)C)cc1)c1ccccc1 | > 30 µM (inactive) | > 30 µM (inactive) | > 30 µM (inactive) | > 30 µM (inactive) | > 30 µM (inactive)
C=CC(=O)N1CCC[C@H](n2c(=O)n(-c3ccc(Oc4ccccc4)cc3)c3c(N)ncnc32)C1 | > 30 µM (inactive) | > 30 µM (inactive) | > 30 µM (inactive) | > 30 µM (inactive) | > 30 µM (inactive)
Cc1nc2cc(-c3nn(C(C)C)c4ncnc(N)c34)ccc2o1 | > 30 µM (inactive) | > 30 µM (inactive) | > 30 µM (inactive) | > 30 µM (inactive) | > 30 µM (inactive)
COCc1c(-c2ccc(NC(=O)Nc3cc(C(F)(F)F)ccc3F)c(F)c2)c2c(N)ncnn2c1CN1CCOCC1 | > 30 µM (inactive) | > 30 µM (inactive) | > 30 µM (inactive) | > 30 µM (inactive) | > 30 µM (inactive)
COc1cc(Nc2ncc3c(n2)-c2ccc(Cl)cc2C(c2c(F)cccc2OC)=NC3)ccc1C(=O)O [ALISERTIB] | > 30 µM (inactive) |  | > 30 µM (inactive) | > 30 µM (inactive) | > 30 µM (inactive)
Cc1nc(NC(=O)N2CCC[C@H]2C(N)=O)sc1-c1ccnc(C(C)(C)C(F)(F)F)c1 [ALPELISIB] |  | > 30 µM (inactive) |  | > 30 µM (inactive) | > 30 µM (inactive)
CNC(=O)c1ccccc1Sc1ccc2c(/C=C/c3ccccn3)n[nH]c2c1 [AXITINIB] | > 30 µM (inactive) |  |  | > 30 µM (inactive) | > 30 µM (inactive)
NC(=O)Nc1cc(-c2cccc(F)c2)sc1C(=O)N[C@H]1CCCNC1 [AZD-7762] |  | 3.1 µM (active) | > 30 µM (inactive) | > 30 µM (inactive) | > 30 µM (inactive)
CCS(=O)(=O)N1CCN(c2ccc(Nc3ncc(C(N)=O)c(NC4CC4)n3)cc2)CC1 [Cerdulatinib Hydrochloride] | > 30 µM (inactive) | > 30 µM (inactive) | > 30 µM (inactive) | > 30 µM (inactive) | 
Cn1cc(C2=C(c3cn(C4CCN(Cc5ccccn5)CC4)c4ccccc34)C(=O)NC2=O)c2ccccc21 [ENZASTAURIN] |  |  | > 30 µM (inactive) | > 30 µM (inactive) | > 30 µM (inactive)
CNC(=O)c1cccc2cc(Oc3ccnc4cc(OCC5(N)CC5)c(OC)cc34)ccc12 [LUCITANIB] | > 30 µM (inactive) | > 30 µM (inactive) |  | > 30 µM (inactive) | > 30 µM (inactive)
FC(F)(F)c1ccc(/C=C/c2nc(COc3ccc(CCCCn4ccnn4)cc3)co2)cc1 [MUBRITINIB] |  | > 30 µM (inactive) | > 30 µM (inactive) | > 30 µM (inactive) | > 30 µM (inactive)
COc1ncc(-c2ccc3nccc(-c4ccnnc4)c3c2)cc1NS(=O)(=O)c1ccc(F)cc1F [OMIPALISIB] |  | > 30 µM (inactive) | > 30 µM (inactive) | > 30 µM (inactive) | > 30 µM (inactive)
Cc1[nH]c(/C=C2\C(=O)Nc3ccccc32)c(C)c1CCC(=O)O [ORANTINIB] | > 30 µM (inactive) |  | > 30 µM (inactive) | > 30 µM (inactive) | > 30 µM (inactive)
CC(=O)NCC(=O)N1[C@@H]2CC[C@H]1c1ccc(Nc3ncc(C(F)(F)F)c(NC4CCC4)n3)cc12 [PF-03814735] | > 30 µM (inactive) |  | > 30 µM (inactive) | > 30 µM (inactive) | > 30 µM (inactive)
N#CC[C@H](C1CCCC1)n1cc(-c2ncnc3[nH]ccc23)cn1 [RUXOLITINIB] |  |  |  | > 30 µM (inactive) | > 30 µM (inactive)
CO[C@H]1C[C@@H]2CC[C@@H](C)[C@@](O)(O2)C(=O)C(=O)N2CCCC[C@H]2C(=O)O[C@H]([C@H](C)C[C@@H]2CC[C@@H](O)[C@H](OC)C2)CC(=O)[C@H](C)/C=C(\C)[C@@H](O)[C@@H](OC)C(=O)[C@H](C)C[C@H](C)/C=C/C=C/C=C/1C [SIROLIMUS] |  | > 30 µM (inactive) |  | > 30 µM (inactive) | > 30 µM (inactive)

Second part, the compound after the results:

Kd [1] | Kd [2] | Kd (Rab-like protein 3) | Kd [3] | Kd [4] | Compound
> 30 µM (inactive) | > 30 µM (inactive) |  | > 30 µM (inactive) | > 30 µM (inactive) | Cc1cc(C(=O)NOCCO)c(Nc2ccc(I)cc2F)n(C)c1=O [AZD-8330]
> 30 µM (inactive) |  | > 30 µM (inactive) | > 30 µM (inactive) | > 30 µM (inactive) | C[C@@H](Oc1cc(-n2cnc3ccc(CN4CCN(C)CC4)cc32)sc1C(N)=O)c1ccccc1C(F)(F)F [GSK-461364]
 | > 30 µM (inactive) | > 30 µM (inactive) | > 30 µM (inactive) | > 30 µM (inactive) | COc1ccc(S(=O)(=O)N(C(C)=O)c2ccccc2/C=C/c2cc[n+]([O-])cc2)cc1 [HMN-214]
 |  | > 30 µM (inactive) | > 30 µM (inactive) | > 30 µM (inactive) | NC(=O)c1c(OCc2c(F)cc(Br)cc2F)nsc1NC(=O)NCCCCN1CCCC1 [OSI-632]
> 30 µM (inactive) |  | > 30 µM (inactive) | > 30 µM (inactive) | > 30 µM (inactive) | O=C(NOCCO)c1cc(CN2OCCCC2=O)c(F)c(F)c1Nc1ccc(I)cc1F [RO-4987655]
 | > 30 µM (inactive) | > 30 µM (inactive) | > 30 µM (inactive) | > 30 µM (inactive) | CC(C)c1cc(CNc2nc(Nc3cc(C4CC4)[nH]n3)cc(N3CCN(C)CC3)n2)on1 [XL-228]
